Laboratory results from PubChem BioAssay (NCI).
Several values for one entry are separate records, joined by “and”; a condition that tells them apart may be missing. Equal entries are not always repeated.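 Following 48 hours of exposure in 96-well plates, responses at five concentrations were used to interpolate endpoints linearly. GI50 marks 50% less growth. TGI: concentration producing complete growth inhibition.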 Where a SMILES comes first, the peptide text is derived from it. The star is where a group is joined. Boc = CC(C)(C)OC(=O)*; Bn = c1ccc(C*)cc1

What was measured:
Assay in all cases: inhibition of tumour cell growth, NCI panel, 48 h
SF-539 CNS = tested on: SF-539 CNS
MALME-3M melanoma = tested on: MALME-3M melanoma
MDA-MB-231 breast = tested on: MDA-MB-231 breast
SK-OV-3 ovarian = tested on: SK-OV-3 ovarian
MDA-N = tested on: MDA-N
NCI-H460 lung = tested on: NCI-H460 lung
TK-10 renal = tested on: TK-10 renal
SR leukemia = tested on: SR leukemia
T-47D breast = tested on: T-47D breast
MDA-MB-435 = tested on: MDA-MB-435
NCI/ADR-RES ovarian = tested on: NCI/ADR-RES ovarian

Structure (SMILES) | TGI (SF-539 CNS) [µM] | TGI (MALME-3M melanoma) | TGI (MDA-MB-231 breast) | TGI (SK-OV-3 ovarian) | TGI (MDA-N) | TGI (NCI-H460 lung) | TGI (TK-10 renal) [µM] | TGI (SR leukemia) | TGI (T-47D breast) | TGI (MDA-MB-435) | TGI (NCI/ADR-RES ovarian) [µM] | GI50 (MALME-3M melanoma) [µM] | GI50 (MDA-MB-231 breast) [µM] | GI50 (SK-OV-3 ovarian) [µM] | GI50 (NCI-H460 lung) | GI50 (TK-10 renal) | GI50 (SR leukemia) [µM] | GI50 (T-47D breast) | GI50 (MDA-MB-435) | GI50 (NCI/ADR-RES ovarian) [µM]
CN1CC2=C(NC(=S)NC2c2ccccc2Cl)/C(=C/c2ccccc2Cl)C1 (stereo unspecified) | > 100 | 74.4 µM | > 100 µM | > 100 µM | > 100 µM | > 100 µM | > 100 | 70.5 µM | > 100 µM | > 100 µM | > 100 |  |  |  |  |  |  |  |  | 
O=C(NCCCN(CCCCN(CCCNC(=O)c1cc(S(=O)(=O)O)cc(O)c1O)C(=O)c1cc(S(=O)(=O)O)cc(O)c1O)C(=O)c1cc(S(=O)(=O)O)cc(O)c1O)c1cc(S(=O)(=O)O)cc(O)c1O |  | > 100 µM | > 100 µM |  | > 100 µM | > 100 µM | > 100 | > 100 µM | > 100 µM | > 100 µM | > 100 |  |  |  |  |  |  |  |  | 
C=C1c2nc3ccccc3n2C=C(c2ccc(Cl)cc2)N1c1ccc(OCCN2CCCCC2)cc1 | > 100 | 45 µM and > 100 µM | > 100 µM | > 100 µM | 45 µM | 45 µM and > 100 µM | > 100 |  | > 100 µM | 45 µM and > 100 µM | > 100 | 0.415 | > 100 | > 100 | 1.2 µM | > 100 µM | 0.0439 | > 100 µM | 0.772 µM | 2.14
CC1=CC(=O)N(n2c(Cc3ccc(Cl)cc3)n[nH]c2=O)C1=O | > 100 | > 100 µM | > 100 µM | > 100 µM | > 100 µM | > 100 µM | > 100 | 38.7 µM | > 100 µM | > 100 µM | > 100 |  |  |  |  |  |  |  |  | 
Cc1cccc(C)c1N=Nc1ccc(O)c(CN(C)C)c1 | > 100 | 76.2 µM | > 100 µM | > 100 µM | > 100 µM | > 100 µM | > 100 | > 100 µM | 79.3 µM | > 100 µM | > 100 |  |  |  |  |  |  |  |  | 
O=C1/C(=C/c2ccc(O)c(O)c2)CC/C1=C\c1ccc(O)c(O)c1 | 9.64 | > 100 µM | > 100 µM | > 60.2 µM | > 100 µM | > 100 µM | > 100 | > 29.5 µM | 63.3 µM | > 100 µM | > 100 |  |  |  |  |  |  |  |  | 
CCC1CCC2c3c([nH]c4ccc(C)cc34)C3C(=O)N(N(C)C)C(=O)C3C2C1 (stereo unspecified) | 45.5 | 39.2 µM | > 100 µM | > 100 µM | 4.52 µM | > 68 µM | > 100 | 48.6 µM | 41.2 µM | > 33.4 µM | > 53.5 |  |  |  |  |  |  |  |  | 
O=C1CC2CC(CC3(CO3)C2)C1F (stereo unspecified) |  | > 100 µM | > 100 µM | > 100 µM | > 100 µM | > 100 µM | > 100 | > 100 µM | > 100 µM | > 100 µM | > 100 |  |  |  |  |  |  |  |  | 
Cc1ccsc1C(=S)Nc1ccc(Cl)c(/C=N/OC(C)C)c1 | > 100 | 98.9 µM | > 100 µM | > 100 µM | > 100 µM | > 100 µM | > 100 | 48.7 µM | > 100 µM | > 100 µM | > 100 |  |  |  |  |  |  |  |  | 
COc1cc(CNc2c3ccccc3nc3ccccc23)cc(OC)c1OC | 15.7 | 12.5 µM | 23.6 µM | 28.4 µM | 13 µM | 8.18 µM | 37.5 | 7.58 µM | 41.9 µM | 12.9 µM | 14.2 |  |  |  |  |  |  |  |  | 
COc1ccc(-c2nc3c(C(=O)NCCN(C)C)cccc3c3ccccc23)cc1 | 4.87 | 8.7 µM | 12.2 µM |  | 5.45 µM | 10.9 µM | 19.8 | 6.96 µM | 29.7 µM | 5.16 µM | 45.4 |  |  |  |  |  |  |  |  | 
CNC(=O)C(CC(C)C)NC(=O)C(C)NC(=O)C(Cc1ccc(OCc2ccccc2)cc1)NC(=O)C(COCc1ccccc1)NC(=O)OC(C)(C)C (stereo unspecified) (Boc-S(Bn)Y(Bn)AL-NHMe; configuration not given here) | > 57.8 | > 100 µM and 18.1 µM | 35.7 µM and 36 µM | > 60.3 µM and 39.6 µM | 30 µM and 30.9 µM | > 61.4 µM and 42.6 µM | > 100 | > 46.1 µM and 86.9 µM | > 74 µM and 27.1 µM | > 55.9 µM and 27.9 µM | > 100 |  |  |  | > 41 µM and 18.3 µM | > 73.8 µM and 29.1 µM |  | 28.2 µM and 5.15 µM | 20.7 µM and 10.1 µM | 
CN(C)CC1CCC/C(=C\c2ccccc2)C1=O (stereo unspecified) | 14.3 | 3.46 µM | 4.18 µM | 34 µM | 8.93 µM | 16.9 µM | 7.85 | > 100 µM | 4.35 µM | 3.54 µM | 41.6 |  |  |  |  |  |  |  |  | 
CC(=O)Oc1ccc2cc(-c3ccc(OC(C)=O)c(OC(C)=O)c3)c(=O)oc2c1 | > 100 | > 100 µM | > 100 µM |  | > 100 µM | > 100 µM | > 100 | > 100 µM | 62.1 µM | > 100 µM | > 100 |  |  |  |  |  |  |  |  | 
